Test results published in publication PMC6867895 (mBio, 2019).
Converted amounts (≈) assume the structure as drawn. Like-named read-outs stand apart in the source and are kept apart here.

Key:
E. coli DH10B pBCSK- = assay: microbe, parasite or virus in culture; settings: Escherichia coli, DH10BPBCSK, read-out: MIC
VIM-2 [1] = molecular target: T1, VIM-2 (Pseudomonas aeruginosa, UniProt Q9K2N0); settings: read-out: Parameter by metallo-β-lactamase / VIM-2 / KM; 50 mM HEPES pH 7.0, 10 μM added ZnSO4, 25°C
T1 construct: gene blaVIM-2

[2] = test system: E. coli DH10B pBCSK- blaVIM-2; assay: microbe, parasite or virus in culture; settings: Escherichia coli, read-out: MIC
VIM-2 [3] = molecular target: T1, VIM-2; settings: read-out: Parameter by metallo-β-lactamase / VIM-2 / KM; 50 mM HEPES pH 7.0, 10 μM added ZnSO4, 25°C; remark: listed apart in the source
VIM-2 [4] = molecular target: T1, VIM-2; settings: read-out: Parameter by metallo-β-lactamase / VIM-2 / KM; 50 mM HEPES pH 7.0, 10 μM added ZnSO4, 25°C; remark: listed apart in the source
VIM-2 [5] = molecular target: T1, VIM-2; assay: initial-rate hydrolysis, absorbance […] nm (product formation); type: biochemical; settings: read-out: Parameter by metallo-β-lactamase / VIM-2 / KM; 50 mM HEPES pH 7.0, 10 μM added ZnSO4, 25°C

Compound	MIC (E. coli DH10B pBCSK-) [µg/mL]	Km (VIM-2 [1]) [µM]	MIC [2] [µg/mL]	Km (VIM-2 [3]) [µM]	Km (VIM-2 [4]) [µM]	Km (VIM-2 [5]) [µM]
C[C@@H](O)[C@H]1C(=O)N2C(C(=O)O)=C(S[C@@H]3CN[C@H](C(=O)N(C)C)C3)[C@H](C)[C@H]12 [Meropenem]	0.03 (≈ 0.0782 µM)	5 ± 0.8	0.5 (≈ 1.3 µM)	–	–	–
C[C@@H](O)[C@H]1C(=O)N2C(C(=O)O)=C(S[C@@H]3CN[C@H](C(=O)Nc4cccc(C(=O)O)c4)C3)[C@H](C)[C@H]12 [Ertapenem]	0.0075 (≈ 0.0158 µM)	–	0.25 (≈ 0.526 µM)	–	–	–
CC(=O)OCC1=C(C(=O)O)N2C(=O)[C@@H](NC(=O)Cc3cccs3)[C@H]2SC1 [Cephalothin]	4 (≈ 10.1 µM)	–	256 (≈ 646 µM)	–	–	–
C[C@@H](O)[C@H]1C(=O)N2C(C(=O)O)=C(SCCNC=N)C[C@H]12 [Imipenem]	0.5 (≈ 1.67 µM)	–	4 (≈ 13.4 µM)	–	–	–
CC1(C)S[C@@H]2[C@H](NC(=O)[C@H](N)c3ccccc3)C(=O)N2[C@H]1C(=O)O [Ampicillin]	4 (≈ 11.4 µM)	–	1020 (≈ 2930 µM)	84 ± 7	–	–
CC(C)(O/N=C(\C(=O)N[C@@H]1C(=O)N2C(C(=O)[O-])=C(C[n+]3ccccc3)CS[C@H]12)c1csc(N)n1)C(=O)O [Ceftazidime]	0.5 (≈ 0.915 µM)	–	32 (≈ 58.5 µM)	–	90 ± 11	–
Chromacef	–	–	–	–	–	11 ± 2
